The conditions of series [1]: in vivo; cited from earlier work.
Series [2] concerns tumor bearing animal models. Conditions: cited from earlier work.
The target in the next series is c-Kit (Homo sapiens, UniProt P10721). Conditions: cited from earlier work.
In series [3] the test system is advanced or metastatic gastric cancer. Conditions: cited from earlier work.
For series [4] the following is noted: healthy volunteers, cited from earlier work.
In a further series the target is c-SRC (Homo sapiens, UniProt P12931). The settings on record: cited from earlier work.
c-SRC, sequence (P12931 whole entry, species assumed): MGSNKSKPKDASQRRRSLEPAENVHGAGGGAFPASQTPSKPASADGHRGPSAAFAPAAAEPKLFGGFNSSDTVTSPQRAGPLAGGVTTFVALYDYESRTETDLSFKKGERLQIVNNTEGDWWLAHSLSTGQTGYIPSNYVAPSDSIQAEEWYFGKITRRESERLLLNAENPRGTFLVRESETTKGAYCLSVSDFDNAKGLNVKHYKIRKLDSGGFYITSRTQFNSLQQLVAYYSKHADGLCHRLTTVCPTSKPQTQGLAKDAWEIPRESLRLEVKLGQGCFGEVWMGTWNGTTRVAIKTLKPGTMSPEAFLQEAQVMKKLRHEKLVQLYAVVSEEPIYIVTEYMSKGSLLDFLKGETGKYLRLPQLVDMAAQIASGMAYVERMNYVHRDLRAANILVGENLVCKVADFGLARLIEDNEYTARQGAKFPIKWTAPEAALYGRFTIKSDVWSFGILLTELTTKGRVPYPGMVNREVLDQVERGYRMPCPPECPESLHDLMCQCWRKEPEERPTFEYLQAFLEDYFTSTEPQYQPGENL
For another series, the target named is VEGFR-2 (Homo sapiens, UniProt P35968). The settings on record: nonclinical studies; cited from earlier work.
VEGFR-2, sequence (P35968 20-1356, species assumed): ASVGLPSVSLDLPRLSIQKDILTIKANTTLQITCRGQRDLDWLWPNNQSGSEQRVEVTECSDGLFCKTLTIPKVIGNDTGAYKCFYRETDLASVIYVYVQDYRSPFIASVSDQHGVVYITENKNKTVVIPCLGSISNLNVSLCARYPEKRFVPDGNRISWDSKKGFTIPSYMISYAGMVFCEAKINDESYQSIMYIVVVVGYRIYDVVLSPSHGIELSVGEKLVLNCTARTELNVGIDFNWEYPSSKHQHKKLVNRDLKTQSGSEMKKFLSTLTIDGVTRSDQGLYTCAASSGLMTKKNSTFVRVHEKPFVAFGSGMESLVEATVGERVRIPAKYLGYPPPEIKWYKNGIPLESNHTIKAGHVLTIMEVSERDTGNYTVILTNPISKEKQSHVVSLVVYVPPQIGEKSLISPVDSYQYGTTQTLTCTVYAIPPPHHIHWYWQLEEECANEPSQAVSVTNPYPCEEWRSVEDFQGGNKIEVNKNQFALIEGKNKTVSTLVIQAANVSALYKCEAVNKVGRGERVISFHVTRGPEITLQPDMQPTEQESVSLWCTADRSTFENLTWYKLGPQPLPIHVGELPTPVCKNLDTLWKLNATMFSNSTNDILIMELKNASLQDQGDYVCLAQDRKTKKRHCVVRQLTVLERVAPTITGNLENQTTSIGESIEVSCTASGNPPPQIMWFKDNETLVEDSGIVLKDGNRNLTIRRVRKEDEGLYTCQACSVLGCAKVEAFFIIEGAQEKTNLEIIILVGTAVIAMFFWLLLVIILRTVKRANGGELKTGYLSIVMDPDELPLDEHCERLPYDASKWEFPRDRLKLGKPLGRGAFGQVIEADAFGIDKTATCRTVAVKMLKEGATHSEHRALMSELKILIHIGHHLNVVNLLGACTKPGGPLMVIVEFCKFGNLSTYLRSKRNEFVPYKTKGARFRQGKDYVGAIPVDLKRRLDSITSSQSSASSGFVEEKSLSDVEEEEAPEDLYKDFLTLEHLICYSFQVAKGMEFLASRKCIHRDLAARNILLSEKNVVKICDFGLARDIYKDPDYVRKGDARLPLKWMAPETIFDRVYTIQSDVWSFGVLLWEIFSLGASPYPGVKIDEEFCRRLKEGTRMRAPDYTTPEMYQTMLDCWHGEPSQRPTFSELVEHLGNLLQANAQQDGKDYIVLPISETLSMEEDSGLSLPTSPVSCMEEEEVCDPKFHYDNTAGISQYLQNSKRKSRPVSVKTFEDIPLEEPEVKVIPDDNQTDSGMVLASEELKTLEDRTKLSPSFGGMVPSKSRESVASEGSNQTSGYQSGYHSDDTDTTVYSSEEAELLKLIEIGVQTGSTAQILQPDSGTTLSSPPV
The test system of series [5] is mouse LL/2 lung carcinoma. In words: LL/2 lung carcinoma syngeneic mouse model. The settings on record: day 20; apatinib mesylate 300 mg/kg p.o. q.d., anti-muPD-1 antibody 10 mg/kg i.p. b.i.w.; C57BL/6 mice. The class given is in vivo. On the procedure: 40 female C57BL/6 mice purchased from Jackson Laboratories were enrolled on the study. Animals were housed for stabilization period. Animals were housed in individual HEPA ventilated cages (Innocage® IVC, Innovive USA). Fluorescent lighting was provided on a 12-hour cycle. Temperature and humidity was monitored and recorded daily and maintained to the maximum extent possible between 68-74° F. (20-23° C.) and 30-70% humidity, respectively. 2920×.10 18% soy irradiated rodent feed (Harlan) and autoclaved acidified water (pH 2.5-3) was provided ad libitum.
For inoculation, LL/2 cell viability was at 98%. Cryo vials containing LL/2 cells were thawed and prepared for injection into mice. On study day −3 cells were washed in PBS, counted, and re-suspended in cold PBS at concentrations of 250,000 viable cells/100 μL. Cell suspensions were mixed with PBS and kept on ice during transport to the vivarium. Cells for injections were prepared by withdrawing the PBS-cell mixture into a chilled 1 mL Lure-lok syringe fitted with a 26 7/8 G (0.5 mm×22 mm) needle. […]
Animals were monitored weekly for palpable tumors, or any changes in appearance or behavior. Once tumors were palpable, they were measured 3 times a week using calipers. Tumor volume was calculated using the following equation (longest diameter×shortest diameter 2)/2.
Body weight was measured at least three times a week. […]

For series [6] the following is noted: single dose, cited from earlier work.

Where a name gives a salt, the structure may show the parent alone.

c-Kit, sequence (P10721 26-976): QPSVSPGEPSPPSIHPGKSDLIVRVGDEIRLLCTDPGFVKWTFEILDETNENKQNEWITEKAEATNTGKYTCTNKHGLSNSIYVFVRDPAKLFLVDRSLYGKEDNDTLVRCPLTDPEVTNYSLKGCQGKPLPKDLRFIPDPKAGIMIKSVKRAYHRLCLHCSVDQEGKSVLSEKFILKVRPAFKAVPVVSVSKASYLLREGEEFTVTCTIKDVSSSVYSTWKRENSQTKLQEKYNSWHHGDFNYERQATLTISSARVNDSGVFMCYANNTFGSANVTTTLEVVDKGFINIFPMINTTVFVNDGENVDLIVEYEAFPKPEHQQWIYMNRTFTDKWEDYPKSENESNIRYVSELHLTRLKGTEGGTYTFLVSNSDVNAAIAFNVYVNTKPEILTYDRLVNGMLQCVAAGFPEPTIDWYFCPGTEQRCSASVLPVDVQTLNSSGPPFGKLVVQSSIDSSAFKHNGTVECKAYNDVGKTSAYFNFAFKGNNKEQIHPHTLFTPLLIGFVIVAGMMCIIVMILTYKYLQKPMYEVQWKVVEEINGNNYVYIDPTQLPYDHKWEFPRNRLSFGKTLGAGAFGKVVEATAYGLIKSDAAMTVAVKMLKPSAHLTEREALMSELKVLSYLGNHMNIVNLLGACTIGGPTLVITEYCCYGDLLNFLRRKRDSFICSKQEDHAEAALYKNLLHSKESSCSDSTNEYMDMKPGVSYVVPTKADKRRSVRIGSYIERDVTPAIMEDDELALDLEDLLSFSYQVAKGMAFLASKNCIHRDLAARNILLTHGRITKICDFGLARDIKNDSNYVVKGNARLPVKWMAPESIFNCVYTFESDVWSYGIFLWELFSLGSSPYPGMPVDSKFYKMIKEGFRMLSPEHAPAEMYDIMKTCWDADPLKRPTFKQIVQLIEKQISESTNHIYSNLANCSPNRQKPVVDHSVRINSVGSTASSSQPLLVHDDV

Take `Cc1nc(Nc2ncc(C(=O)Nc3c(C)cccc3Cl)s2)cc(N2CCN(CCO)CC2)n1` [Dasatinib]: in series [1], the “Safety Profile: Central nervous system” value is listed as “R”, the “Safety Profile: Liver/Bile” value is given as “R”, the “Safety Profile: Musculoskeletal/bone” value is listed as “R” and the “Safety Profile: Renal” value was “R”.
Turning to `C#Cc1cccc(Nc2ncnc3cc(OCCOC)c(OCCOC)cc23)c1` [Erlotinib], in [1], the “Safety Profile: Blood/lymph system” value is given as “R”, the “Safety Profile: Central nervous system” value is “R” and the “Safety Profile: Liver/Bile” value was “R”.
As to `CS(=O)(=O)CCNCc1ccc(-c2ccc3ncnc(Nc4ccc(OCc5cccc(F)c5)c(Cl)c4)c3c2)o1` [Lapatinib], in series [1], the “Safety Profile: Central nervous system” value is “R” and the “Safety Profile: Heart” value is listed as “R”.
Consider `Cc1cn(-c2cc(NC(=O)c3ccc(C)c(Nc4nccc(-c5cccnc5)n4)c3)cc(C(F)(F)F)c2)cn1` [Nilotinib], for which, in series [1], the “Safety Profile: Central nervous system” value is “R”, the “Safety Profile: GI” value was “R”, the “Safety Profile: Musculoskeletal/bone” value was “R” and the “Safety Profile: Renal” value is recorded as “R”. Moreover, the “Safety Profile: Vascular” value in series [1] is listed as “R”.
For `Cc1ccc(Nc2nccc(N(C)c3ccc4c(C)n(C)nc4c3)n2)cc1S(N)(=O)=O` [Pazopanib], in [1], the “Safety Profile: Heart” value is recorded as “R”.
For the compound `N#CC1(c2ccc(NC(=O)c3cccnc3NCc3ccncc3)cc2)CCCC1` [Rivoceranib, N-[4-(1-cyanocyclopentyl)phenyl]-2-{[(pyridin-4-yl)methyl]amino} pyridine-3-carboxamide], the “side effects in animals” value in series [2] (at efficacious doses) is “minimal side effects”. Besides, the “efficacy in various tumor bearing animal models” value in series [2] (nonclinical studies) is recorded as “efficacious”. The “inhibition of c-Kit tyrosine kinase” value at c-Kit is on record as “mildly inhibits”. In addition, in series [3] (Phase 3), the “median overall survival (OS) compared to placebo” value was “prolonged” and the “median progression-free survival (PFS) compared to placebo” value was “prolonged”. Moreover, in series [3] (hypertension, HFS, proteinuria, fatigue, anorexia, and elevated aminotransferase), the “patients with Grade ¾ adverse reactions” value was “more than 2%”. The “food effects on the bioavailability” value in series [4] (81 mg rivoceranib dose) is “minimal”. Moreover, the “increase in bioavailability with food” value in series [4] (201 mg dose) was 20-30%. Also, the “inhibition of c-SRC tyrosine kinase” value on c-SRC is recorded as “mildly inhibits”. Further, the “binding to VEGFR-2” value on VEGFR-2 is “selectively binds”. Further, the “% Tumor growth inhibition” value in [5] is reported as 37%.
Take `CNC(=O)c1cc(Oc2ccc(NC(=O)Nc3ccc(Cl)c(C(F)(F)F)c3)cc2)ccn1` [Sorafenib]: in series [1], the “Safety Profile: Central nervous system” value is listed as “R”, the “Safety Profile: GI” value was “R”, the “Safety Profile: Heart” value is “R” and the “Safety Profile: Liver/Bile” value is recorded as “R”. In [1], the “Safety Profile: Lung airways” value was “R”, the “Safety Profile: Musculoskeletal/bone” value is “R” and the “Safety Profile: Renal” value is recorded as “R”.
On to `CCN(CC)CCNC(=O)c1c(C)[nH]c(/C=C2\C(=O)Nc3ccc(F)cc32)c1C` [Sunitinib], for which, in [1], the “Safety Profile: Central nervous system” value is “R”, the “Safety Profile: Heart” value is reported as “R” and the “Safety Profile: Liver/Bile” value is recorded as “R”.
Consider `N#CC1(c2ccc(NC(=O)c3cccnc3NCc3ccncc3)cc2)CCCC1` [rivoceranib mesylate], for which, in series [6] (healthy male), the “AUC0-∞ in Chinese and Japanese subjects compared to Caucasian subjects” value is reported as “slightly higher”; the “Cmax in Chinese and Japanese subjects compared to Caucasian subjects” value was “slightly higher”. The t1/2 in [6] (similar amongst Caucasian, Japanese and Chinese groups) is 7.5 to 8 h.

Source of the values: US20200282052A1, “A COMBINATION THERAPY WITH APATINIB FOR THE TREATMENT OF CANCER” (Elevar Therapeutics, Inc., priority 2017, published 2020).
